These results are taken from PubChem BioAssay AID1745844 (Carcinogenic Potency Database (CPDB), 2022).

The source made the active and inactive calls. The rule behind the calls is not given here.

This data set deals with rodent lifetime carcinogenesis bioassay, tumor incidence TD50. Description: chronic cancer bioassays in animals – CPDB, compiled studies (AID 1745844).

The term TD50 denotes the dose at which the toxic effect under study appears in half of the subjects. As for `Nc1c(Cl)c(Cl)nc(C(=O)O)c1Cl`, the carcinogen call (mouse, strain B6C3F1, females, in feed, site: any site (literature study), lesion: several types, types named in the paper, dosed 80 weeks, study length 90 weeks) is “negative (inactive)”; the carcinogen call (mouse, strain B6C3F1, males, in feed, site: any site (literature study), lesion: several types, types named in the paper, dosed 80 weeks, study length 90 weeks) is “negative (inactive)”; the carcinogen call (rat, strain Fischer 344, females, in feed, site: thyroid gland, lesion: parafollicular-cell adenoma, dosed 104 weeks, study length 104 weeks) is “negative (inactive)”; the carcinogen call (rat, strain Osborne-Mendel, females, in feed, site: any site (literature study), lesion: several types, types named in the paper, dosed 80 weeks, study length 113 weeks) was “negative (inactive)”. The TD50 is 20100 mg/kg/day (mouse, strain B6C3F1, females, in feed, site: liver, lesion: hepatocellular adenoma + hepatocellular carcinoma + neoplastic nodule, dosed 80 weeks, study length 90 weeks); 15800 mg/kg/day (inactive) (rat, strain Fischer 344, females, in feed, site: liver, lesion: hepatocellular adenoma, dosed 104 weeks, study length 104 weeks); 5560 mg/kg/day (inactive) (rat, strain Fischer 344, males, in feed, site: liver, lesion: hepatocellular adenoma, dosed 104 weeks, study length 104 weeks); 8710 mg/kg/day (inactive) (rat, strain Fischer 344, males, in feed, site: liver, lesion: hepatocellular carcinoma, dosed 104 weeks, study length 104 weeks); 1640 mg/kg/day (rat, strain Osborne-Mendel, females, in feed, site: liver, lesion: hepatocellular adenoma + hepatocellular carcinoma + neoplastic nodule, dosed 80 weeks, study length 113 weeks); 1700 mg/kg/day (rat, strain Osborne-Mendel, females, in feed, site: liver, lesion: neoplastic nodule, dosed 80 weeks, study length 111 weeks). Also, the TD50 is, setting by setting: (rat, strain Osborne-Mendel, males, in feed, site: any site (literature study), lesion: several types, types named in the paper, dosed 80 weeks, study length 113 weeks) 2930 mg/kg/day (inactive); (rat, strain Osborne-Mendel, males, in feed, site: liver, lesion: hepatocellular adenoma + hepatocellular carcinoma + neoplastic nodule, dosed 80 weeks, study length 113 weeks) 1320 mg/kg/day.
For the compound `C/C=C/C=C/C(=O)O`, the TD50 (mouse, strain ASH-CS1, females, in feed, site: liver, lesion: hyperplastic nodule, dosed 80 weeks, study length 80 weeks) was 362000 mg/kg/day (inactive); the TD50 (rat, strain Wistar, females, in feed, site: liver, lesion: hemangioma, dosed 104 weeks, study length 104 weeks) was 34000 mg/kg/day (inactive); the TD50 (rat, strain Wistar, males, in feed, site: any site (literature study), lesion: malignant tumor, dosed 104 weeks, study length 104 weeks) was 51400 mg/kg/day (inactive); the TD50 (rat, strain Wistar, males, in feed, site: any site (literature study), lesion: several types, types named in the paper, dosed 104 weeks, study length 104 weeks) is 33900 mg/kg/day (inactive). The carcinogen call by setting is: (mouse, strain ASH-CS1, females, in feed, site: lung, lesion: adenoma, dosed 80 weeks, study length 80 weeks) “negative (inactive)”; (mouse, strain ASH-CS1, males, in feed, site: liver, lesion: hyperplastic nodule, dosed 80 weeks, study length 80 weeks) “negative (inactive)”; (mouse, strain ASH-CS1, males, in feed, site: lung, lesion: adenoma, dosed 80 weeks, study length 80 weeks) “negative (inactive)”; (rat, strain Wistar, females, in feed, site: any site (literature study), lesion: malignant tumor, dosed 104 weeks, study length 104 weeks) “negative (inactive)”; (rat, strain Wistar, females, in feed, site: any site (literature study), lesion: several types, types named in the paper, dosed 104 weeks, study length 104 weeks) “negative (inactive)”; (rat, strain Wistar, males, in feed, site: liver, lesion: hemangioma, dosed 104 weeks, study length 104 weeks) “negative (inactive)”.
Consider `ClCC=CCCl`, for which the TD50 was 13 mg/kg/day (rat, strain Charles River CD (Sprague-Dawley), females, inhaled, site: nasal cavity, lesion: adenoma, dosed 51 weeks, study length 104 weeks); 0.695 mg/kg/day (rat, strain Charles River CD (Sprague-Dawley), females, inhaled, site: nasal cavity, lesion: adenoma, dosed 104 weeks, study length 104 weeks); 0.242 mg/kg/day (rat, strain Charles River CD (Sprague-Dawley), females, inhaled, site: nasal cavity, lesion: malignant tumor, dosed 51 weeks, study length 104 weeks); 8.32 mg/kg/day (rat, strain Charles River CD (Sprague-Dawley), females, inhaled, site: nasal cavity, lesion: malignant tumor, dosed 104 weeks, study length 104 weeks); 2 mg/kg/day (rat, strain Charles River CD (Sprague-Dawley), males, inhaled, site: nasal cavity, olfactory epithelium, lesion: adenocarcinoma, dosed 82 weeks, study length 104 weeks); 8.88 mg/kg/day (rat, strain Charles River CD (Sprague-Dawley), males, inhaled, site: nasal cavity, olfactory epithelium, lesion: carcinoma, dosed 82 weeks, study length 104 weeks). For the same compound, the TD50 by setting is: (rat, strain Charles River CD (Sprague-Dawley), males, inhaled, site: nasal cavity, olfactory epithelium, lesion: carcinosarcoma, dosed 82 weeks, study length 104 weeks) 8.88 mg/kg/day; (rat, strain Charles River CD (Sprague-Dawley), males, inhaled, site: nasal cavity, olfactory epithelium, lesion: malignant tumor, dosed 82 weeks, study length 104 weeks) 1.27 mg/kg/day; (rat, strain Charles River CD (Sprague-Dawley), males, inhaled, site: nasal cavity, respiratory epithelium, lesion: adenoma, dosed 82 weeks, study length 104 weeks) 0.653 mg/kg/day; (rat, strain Charles River CD (Sprague-Dawley), males, inhaled, site: nasal cavity, lesion: adenoma, dosed 51 weeks, study length 104 weeks) 23.2 mg/kg/day; (rat, strain Charles River CD (Sprague-Dawley), males, inhaled, site: nasal cavity, lesion: adenoma, dosed 104 weeks, study length 104 weeks) 0.313 mg/kg/day; (rat, strain Charles River CD (Sprague-Dawley), males, inhaled, site: nasal cavity, lesion: malignant tumor, dosed 51 weeks, study length 104 weeks) 0.169 mg/kg/day. Also, the TD50 runs as follows: (rat, strain Charles River CD (Sprague-Dawley), males, inhaled, site: nasal cavity, lesion: malignant tumor, dosed 104 weeks, study length 104 weeks) 1.04 mg/kg/day; (rat, strain Charles River CD (Sprague-Dawley), males, inhaled, site: nasal cavity, lesion: several types, types named in the paper, dosed 82 weeks, study length 104 weeks) 0.467 mg/kg/day.
Turning to `CCCN(CCC)N=O`, the TD50 (monkey, strain Rhesus [Macaca mulatta], both sexes, i.p., site: any site (literature study), lesion: malignant tumor, dosed 133 weeks, study length 133 weeks) is 0.0121 mg/kg/day; the TD50 (monkey, strain Rhesus [Macaca mulatta], both sexes, i.p., site: liver, lesion: hepatocellular carcinoma, dosed 133 weeks, study length 133 weeks) is 0.0121 mg/kg/day; the TD50 (rat, strain Fischer 344, females, by gavage, site: esophagus, lesion: several types, types named in the paper, dosed 30 weeks, study length 60 weeks) was 0.505 mg/kg/day; the TD50 (rat, strain Fischer 344, females, by gavage, site: liver, lesion: hepatocellular carcinoma, dosed 30 weeks, study length 60 weeks) is 0.186 mg/kg/day; the TD50 (rat, strain Fischer 344, females, by gavage, site: nasal cavity, lesion: carcinoma, dosed 30 weeks, study length 60 weeks) is 0.186 mg/kg/day.
In the case of `ClC(Br)Br`, the TD50 by setting is: (mouse, strain B6C3F1, females, by gavage, site: liver, lesion: hepatocellular adenoma + hepatocellular carcinoma + neoplastic nodule, dosed 105 weeks, study length 106 weeks) 139 mg/kg/day; (mouse, strain B6C3F1, females, by gavage, site: liver, lesion: hepatocellular adenoma + hepatocellular carcinoma, dosed 105 weeks, study length 106 weeks) 139 mg/kg/day; (mouse, strain B6C3F1, females, by gavage, site: liver, lesion: hepatocellular adenoma, dosed 105 weeks, study length 106 weeks) 211 mg/kg/day; (mouse, strain B6C3F1, males, by gavage, site: any site (literature study), lesion: several types, types named in the paper, dosed 105 weeks, study length 106 weeks) 11.3 mg/kg/day; (mouse, strain B6C3F1, males, by gavage, site: liver, lesion: hepatocellular adenoma + hepatocellular carcinoma + neoplastic nodule, dosed 105 weeks, study length 106 weeks) 20.7 mg/kg/day; (mouse, strain B6C3F1, males, by gavage, site: liver, lesion: hepatocellular adenoma + hepatocellular carcinoma, dosed 105 weeks, study length 106 weeks) 20.7 mg/kg/day. Also, the TD50 (mouse, strain B6C3F1, males, by gavage, site: liver, lesion: hepatocellular carcinoma, dosed 105 weeks, study length 106 weeks) was determined as 33.5 mg/kg/day; the TD50 (mouse, strain B6C3F1, males, by gavage, site: lung, lesion: alveolar/bronchiolar adenoma + alveolar/bronchiolar carcinoma, dosed 105 weeks, study length 106 weeks) stood at 115 mg/kg/day; the TD50 (rat, strain Fischer 344, females, by gavage, site: liver, lesion: hepatocellular adenoma + hepatocellular carcinoma + neoplastic nodule, dosed 104 weeks, study length 105 weeks) stood at 591 mg/kg/day; the TD50 (rat, strain Fischer 344, males, by gavage, site: liver, lesion: hepatocellular adenoma + hepatocellular carcinoma + neoplastic nodule, dosed 104 weeks, study length 105 weeks) is 150 mg/kg/day. Moreover, the carcinogen call reads like this: (rat, strain Fischer 344, females, by gavage, site: any site (literature study), lesion: several types, types named in the paper, dosed 104 weeks, study length 105 weeks) “negative (inactive)”; (rat, strain Fischer 344, males, by gavage, site: any site (literature study), lesion: several types, types named in the paper, dosed 104 weeks, study length 105 weeks) “negative (inactive)”.
On to `C#C[C@]1(O)CC[C@H]2[C@@H]3CCC4=C(CCC(=O)C4)[C@H]3CC[C@@]21C`, for which the TD50 is, setting by setting: (mouse, strain (C3H x RIII)F1 (MTV+), females, in feed, site: mammary tissue, wider than the gland, lesion: one or several types, types not named, dosed 104 weeks, study length 104 weeks) 2.13 mg/kg/day; (mouse, strain CFLP, females, in feed, site: liver, lesion: hepatocellular tumor, dosed 78 weeks, study length 78 weeks) 49.1 mg/kg/day (inactive). Also, the carcinogen call reads like this: (mouse, strain CFLP, males, in feed, site: liver, lesion: hepatocellular tumor, dosed 78 weeks, study length 78 weeks) “negative (inactive)”; (mouse, strain Swiss Webster, females, by gavage, site: liver, lesion: hepatocellular tumor, dosed 65 weeks, study length 80 weeks) “negative (inactive)”.
As for `N[C@@H](Cc1c[nH]c2ccccc12)C(=O)O`, the carcinogen call was “negative (inactive)” (mouse, strain B6C3F1, females, in feed, site: any site (literature study), lesion: several types, types named in the paper, dosed 78 weeks, study length 104 weeks); “negative (inactive)” (rat, strain Fischer 344, females, in feed, site: any site (literature study), lesion: several types, types named in the paper, dosed 78 weeks, study length 104 weeks); “negative (inactive)” (rat, strain Fischer 344, males, in feed, site: any site (literature study), lesion: several types, types named in the paper, dosed 78 weeks, study length 104 weeks); “negative (inactive)” (rat, strain Fischer, males, in feed, site: urinary bladder, lesion: several types, types named in the paper, dosed 100 weeks, study length 104 weeks). Further, the TD50 reads like this: (mouse, strain B6C3F1, females, in feed, site: liver, lesion: hepatocellular adenoma + hepatocellular carcinoma + neoplastic nodule, dosed 78 weeks, study length 104 weeks) 30200 mg/kg/day; (mouse, strain B6C3F1, males, in feed, site: any site (literature study), lesion: several types, types named in the paper, dosed 78 weeks, study length 104 weeks) 1470 mg/kg/day (inactive).
Turning to `COc1cccc2c1cc([N+](=O)[O-])c1c(C(=O)O)cc3c(c12)OCO3`, the TD50 is 0.0141 mg/kg/day (rat, strain Wistar, females, by gavage, site: forestomach, lesion: several types, types named in the paper, dosed 52 weeks, study length 69 weeks); 0.101 mg/kg/day (rat, strain Wistar, females, by gavage, site: forestomach, lesion: squamous-cell carcinoma, dosed 52 weeks, study length 69 weeks); 0.0247 mg/kg/day (rat, strain Wistar, females, by gavage, site: forestomach, lesion: squamous-cell papilloma, dosed 52 weeks, study length 69 weeks). In addition, the carcinogen call (rat, strain Wistar, males, by gavage, site: forestomach, lesion: squamous-cell carcinoma, dosed 52 weeks, study length 69 weeks) is “positive”.
